Assay results from patent US20240374585A1, “EPITHELIAL SODIUM CHANNEL (ENAC) INHIBITOR CONJUGATES AND METHODS FOR USE THEREOF” (Lung Therapeutics, Inc., priority 2021, published 2024).
Where two headings read alike, the source gives them in different places.

Target: T1, ENaC (Homo sapiens, UniProt P37088+P51168+P51170)
T1 construct: Primary NHBE cells were isolated from bronchi of normal healthy patients; endogenous in cells; host or cells: primary normal human bronchial epithelial (NHBE) cells, differentiated at air-liquid interface
T1 sequence (P37088 1-669): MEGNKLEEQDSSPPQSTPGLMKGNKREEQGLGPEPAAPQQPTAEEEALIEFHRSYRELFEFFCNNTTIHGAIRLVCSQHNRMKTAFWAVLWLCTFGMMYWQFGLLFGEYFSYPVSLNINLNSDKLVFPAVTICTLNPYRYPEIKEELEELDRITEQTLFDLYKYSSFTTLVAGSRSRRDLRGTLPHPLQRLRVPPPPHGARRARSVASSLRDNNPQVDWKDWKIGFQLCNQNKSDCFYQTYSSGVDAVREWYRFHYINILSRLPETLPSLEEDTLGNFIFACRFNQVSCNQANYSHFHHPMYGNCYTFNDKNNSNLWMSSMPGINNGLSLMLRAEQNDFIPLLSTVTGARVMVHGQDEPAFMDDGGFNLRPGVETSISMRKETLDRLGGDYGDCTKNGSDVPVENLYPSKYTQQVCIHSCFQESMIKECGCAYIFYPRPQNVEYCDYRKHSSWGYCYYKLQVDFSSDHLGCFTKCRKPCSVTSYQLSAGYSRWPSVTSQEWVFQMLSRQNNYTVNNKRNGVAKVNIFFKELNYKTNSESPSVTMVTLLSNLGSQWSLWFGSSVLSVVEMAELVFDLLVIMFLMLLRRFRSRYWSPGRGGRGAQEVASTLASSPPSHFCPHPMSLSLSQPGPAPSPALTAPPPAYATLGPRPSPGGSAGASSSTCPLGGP
T1 sequence (P51168 1-640): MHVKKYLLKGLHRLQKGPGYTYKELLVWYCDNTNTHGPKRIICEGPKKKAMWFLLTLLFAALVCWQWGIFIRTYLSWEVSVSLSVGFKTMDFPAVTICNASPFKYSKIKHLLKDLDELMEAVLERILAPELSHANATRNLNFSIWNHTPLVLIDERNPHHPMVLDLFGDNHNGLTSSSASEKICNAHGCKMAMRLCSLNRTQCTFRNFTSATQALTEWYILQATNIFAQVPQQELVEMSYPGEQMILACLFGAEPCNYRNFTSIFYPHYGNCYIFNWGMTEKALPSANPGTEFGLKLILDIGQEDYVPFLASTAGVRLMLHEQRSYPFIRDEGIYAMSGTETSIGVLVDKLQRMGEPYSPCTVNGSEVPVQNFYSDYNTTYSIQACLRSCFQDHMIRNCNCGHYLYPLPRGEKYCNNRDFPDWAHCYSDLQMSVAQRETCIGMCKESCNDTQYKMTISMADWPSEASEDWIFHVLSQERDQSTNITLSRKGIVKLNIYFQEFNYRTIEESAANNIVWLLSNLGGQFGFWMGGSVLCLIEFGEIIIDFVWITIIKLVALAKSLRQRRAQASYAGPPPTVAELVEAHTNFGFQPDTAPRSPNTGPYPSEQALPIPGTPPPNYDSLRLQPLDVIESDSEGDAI
T1 sequence (P51170 1-649): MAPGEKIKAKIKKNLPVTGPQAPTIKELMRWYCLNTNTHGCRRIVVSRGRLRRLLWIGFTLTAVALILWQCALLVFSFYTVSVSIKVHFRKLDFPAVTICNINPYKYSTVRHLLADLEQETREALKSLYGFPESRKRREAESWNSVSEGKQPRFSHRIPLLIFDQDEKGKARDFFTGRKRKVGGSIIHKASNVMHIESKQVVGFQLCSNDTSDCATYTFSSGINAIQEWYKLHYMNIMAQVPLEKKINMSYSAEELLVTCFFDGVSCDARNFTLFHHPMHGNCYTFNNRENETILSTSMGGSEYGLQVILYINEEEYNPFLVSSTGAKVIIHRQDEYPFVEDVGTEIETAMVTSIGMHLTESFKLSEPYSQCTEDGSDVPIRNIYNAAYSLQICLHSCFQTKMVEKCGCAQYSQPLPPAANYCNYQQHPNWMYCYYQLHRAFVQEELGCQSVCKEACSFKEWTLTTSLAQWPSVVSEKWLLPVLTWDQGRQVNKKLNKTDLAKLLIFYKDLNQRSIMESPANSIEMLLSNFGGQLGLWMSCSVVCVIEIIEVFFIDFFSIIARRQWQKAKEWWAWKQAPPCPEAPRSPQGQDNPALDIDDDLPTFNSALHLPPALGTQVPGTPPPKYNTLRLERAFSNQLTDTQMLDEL
Assay: ENaC inhibition in NHBE cell monolayers, Ussing epithelial voltage clamp (short circuit current)
Assay type: cell-based
Description: The objective of this study was to measure the ability of the illustrative conjugates to modulate ion transport function of ENAC in normal human bronchial epithelial (NHBE) cell monolayers. Sodium transport function of ENAC expressed in NHBE monolayers was evaluated using an Ussing epithelial voltage clamp apparatus. See, Hirsh et al., J. Pharmacol. Exp. Ther. 2008; 325:77-88, hereby incorporated by reference in its entirety.
Primary NHBE cells were isolated from bronchi of normal healthy patients, expanded in Lonza media (BEGM™ BulletKit™), and plated on Snapwell™ filters to form an epithelium. Cells on Snapwell™ inserts were grown for at least 21 days in Vertex Differentiation media and exposed to an air-liquid interface to promote differentiation. At least one day before the assay, mucous overlaying the apical surface was removed from the inserts by incubating the apical surface for about 30 minutes with ≥200 μL of differentiation media followed by aspiration of the mucous film and media.
The NHBE cell monolayers grown on Snapwell™ filter inserts were transferred to Physiologic Instruments Ussing recording chambers (Physiologic Instruments, Inc., San Diego, CA) and superfused with HB-PS. One or more 6-channel or 8-channel Physiologic Instruments VCC MC6 or VCC MC8 epithelial voltage clamps were used in combination to record short circuit current (ISC) from up to 24 inserts simultaneously. Air was used to operate the bubble lifts to rapidly circulate solutions in each Ussing chamber half and to aerate the monolayers.
Inserts were voltage clamped at 0 m V to record the ISC. Bumetanide (20 μM) was added to the basolateral side of all inserts. Test conjugates prepared as DMSO (Sigma-Aldrich) stocks were added cumulatively and sequentially to the apical Ussing chamber halves with at least 3 minutes between each addition.
Time and volume matched additions of DMSO to the basolateral side of the test conjugate treated inserts and both sides of the vehicle treated inserts was made to maintain osmotic balance across the epithelia. Transepithelial resistance was monitored with small voltage steps. The assay was performed at 35±2° C.
ENaC current at each test conjugate concentration was calculated as the peak current change produced by each test conjugate treated insert minus the mean current change produced by the corresponding DMSO additions to time-matched vehicle controls inserts. Cumulative difference data was fit to a Hill equation of the form: […]
Where IEnaC is the ISC peak difference current measured at each test conjugate concentration [Test].

In the case of `CC(=O)N[C@@H](Cc1cn(CCCCNC(N)=NC(=O)c2nc(Cl)c(N)nc2N)nn1)C(=O)NCCCCCC(=O)N[C@@H](C)C(=O)N[C@@H](CO)C(=O)N[C@@H](Cc1c[nH]cn1)C(=O)N[C@@H](CC(C)C)C(=O)N[C@@H](CCCNC(=N)N)C(=O)N[C@@H](CCCCN)C(=O)N[C@@H](CC(C)C)C(=O)N[C@@H](CCCNC(=N)N)C(=O)N[C@@H](CCCCN)C(=O)N[C@@H](CCCNC(=N)N)C(=O)N[C@@H](CC(C)C)C(=O)N[C@@H](CC(C)C)C(N)=O` [Conjugate 8], the IC50 is reported as 60 nM.

With `CC(=O)N[C@@H](Cc1cn(CCCCNC(N)=NC(=O)c2nc(Cl)c(N)nc2N)nn1)C(=O)NCCCCCC(=O)N[C@H](C(=O)N[C@@H](CO)C(=O)N[C@@H](CCCCN)C(=O)N[C@@H](CCCNC(=N)N)C(=O)N[C@@H](CCCNC(=N)N)C(N)=O)C(C)C` [Conjugate 9, Ac-(AmilCC2-Pgy)-Ahx-VSKRR-NH2] the IC50 (NHBE cell monolayers, Ussing chamber, apical addition, 35±2° C., read-out: IC50 for the ENaC inhibition) was 100 nM.
